The values that follow come from PMC12557367, ““Precision on Two Wheels”–Structural Refinement of ^64Cu- and ^68Ga-Labeled Bicyclic Peptides Targeting Nectin‑4 for Improved Tumor Imaging: From Preclinical Development to First-in-Human Application” (Journal of Medicinal Chemistry, 2025).

Usually half-life stands for the time needed for the level to fall by half in the phase considered. Higher therefore signals slow loss. One may read the logD as lipophilicity at a set pH, counting ionised and neutral species. Low values mean a more hydrophilic compound, high ones a more lipophilic compound.

For data set [1], the target named is T1, immobilized human nectin-4 (Homo sapiens, UniProt Q96NY8).
T1 construct: close to the value determined for the complete extracellular domain of nectin-4 (0.94 nM); purchased R&D Systems 2659-N4
T1 sequence (Q96NY8 32-349 limits assumed): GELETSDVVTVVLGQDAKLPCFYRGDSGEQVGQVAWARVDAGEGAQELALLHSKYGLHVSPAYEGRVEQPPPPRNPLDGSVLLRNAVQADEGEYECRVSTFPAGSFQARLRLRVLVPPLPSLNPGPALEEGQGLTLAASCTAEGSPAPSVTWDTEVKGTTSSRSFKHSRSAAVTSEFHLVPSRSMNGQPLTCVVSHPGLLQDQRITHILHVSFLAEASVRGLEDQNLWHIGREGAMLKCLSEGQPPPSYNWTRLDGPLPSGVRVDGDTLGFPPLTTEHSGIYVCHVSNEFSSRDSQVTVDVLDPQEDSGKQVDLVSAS
Put plainly: SPR analysis of binding kinetics. As to conditions: ±SEM.

For data set [2], the target named is T2, recombinant human nectin-4 (Homo sapiens, UniProt Q96NY8).
T2 construct: close to the value determined for the complete extracellular domain of nectin-4 (0.94 nM); purchased R&D Systems 2659-N4
T2 sequence (Q96NY8 32-349 limits assumed): T1 sequence (Q96NY8 32-349 limits assumed)
Put plainly: FA-based competitive binding assay with probe 1a. The settings on record: competitive binding curve, variable slope.

Data set [3] is described as follows: Chromatographic hydrophobicity index at immobilized artificial membrane (CHI IAM7.4) by HPLC. Format: physicochemical. The settings on record: nonlabeled peptide, pH 7.4. The protocol: Consequently, the CHI IAM7.4 values indicate that unfavorable pharmacokinetic behavior due to nonspecific binding is not to be expected.
All commercial reagents and solvents were used without further purification, unless otherwise specified. […] The purity of compound 5, which bears selenomethionine, was lower due to the lability to oxidation (as discussed above). The HPLC-based determination of chromatographic hydrophobicity indices at an immobilized artificial membrane was performed as previously described according to the method developed by Valko et al.

Data set [4] in a line: n-Octanol/PBS distribution coefficient (logD 7.4). Format: physicochemical. How it is done: The determination of logD 7.4 was performed in triplicate. A sample of the ^64Cu/^68Ga-labeled compound containing ≈1 MBq in a volume of 1 μL was added to a 1.5 mL Eppendorf tube containing 400 μL of PBS (pH 7.4) and 400 μL of n-Octanol (the phases were presaturated with each other). The tube was vortexed vigorously for 1 min and then centrifuged at 16,100g for 4 min to separate the phases. For sampling from the aqueous phase, the pipette tip was discharged while passing through the octanol layer. Then, the sample was taken within the aqueous phase. Any residual liquid was carefully removed by moving the tip along the inner wall of an Eppendorf tube. The radioactivity in a defined volume of each layer was measured (ISOMED 2100). The distribution coefficient was expressed as the logarithm of the ratio of counts per minute (cpm) measured in the n-Octanol phase to the cpm measured in the PBS phase.

A short description of data set [5]: Small animal PET/CT imaging. Details: species or system mice. The settings on record: mouse, in vivo. Summed up:
(§1)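 NMRI nude mice bore subcutaneous HT-1376 xenografts (5 × 10^6 cells in 50% Matrigel), imaged at ~200 mm^3 tumour volume. Radioligand (molar activity 25 MBq/nmol; ~9 MBq, ≈0.46 nmol) injected i.v. via tail vein, with 75 nmol blocking substance co-injected for blocking; dynamic 2 h PET from injection plus CT for attenuation correction.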

Data set [6] relates to HT-1376-derived tumor xenograft model. Put plainly: Small animal PET/CT imaging. Also noted: species or system mice. The settings on record: mouse, in vivo. Summed up: as §1
Data set [7] can be described thus: Oxidation stability in H2O2 (radio-HPLC). The protocol:
To avoid a too rapid degradation of radiolabeled peptides, a low H2O2 concentration of 0.0012% was chosen. […] In this context, there are three further thioether functionalities in each peptide due to the cyclization of the Cys residues with TATA. In Figure , the curves for the time-dependent degradation of the intact radioligands are depicted, from which the respective half-lives were calculated.
The stability toward oxidizing conditions was assessed with H2O2. For this purpose, the radioligands (2 nmol, 48 μL of labeling mixture) were treated with H2O2 (2 μL of 0.03%, final concentration of 0.0012%) at ambient temperature. At distinct time points (3, 5, and 7 h), an aliquot of 2 μL was withdrawn and diluted with 48 μL of a mixture named “Supersol,” which consists of 20% ethanol, 0.5% Triton X-100, 5 mM EDTA, 0.5 mM o-phenanthroline, and 0.1% saponin. […] The resulting solutions were analyzed by radio-HPLC (same system as that used for analyzing the ^64Cu-labelings).

Numbered stars: 1 amine (or outer) side, 2 acyl side, 3 side chain; on linkers, the order of the positions; unused ones are H or OH. Bridge positions count the residues as written; N and C are the ends. Square brackets hold non-standard residues; d marks the D form. Peptide text beside a SMILES is read from it. * marks the point of attachment. TATA = O=C(CC[*:1])N1CN(C(=O)CC[*:2])CN(C(=O)CC[*:3])C1; X1 = O=C(O)CN1CCN(CC(=O)O)CCN([C@H](CCC(=O)*)C(=O)O)CC1; 1Nal = N[C@@H](Cc1cccc2ccccc12)C(=O)O; Hyp = O=C(O)[C@@H]1C[C@@H](O)CN1; hArg = N=C(N)NCCCC[C@H](N)C(=O)O; SeMet = C[Se]CC[C@H](N)C(=O)O; Nle = CCCC[C@H](N)C(=O)O

Take `CSCC[C@@H]1NC(=O)[C@@H]2CSCCC(=O)N3CN(CN(C3)C(=O)CCSC[C@H](NC(=O)CC[C@H](C(=O)O)N3CCN(CC(=O)O)CCN(CC(=O)O)CC3)C(=O)N3CCC[C@H]3C(=O)N[C@@H](Cc3cccc4ccccc34)C(=O)N[C@H](CC(=O)O)C(=O)N2)C(=O)CCSC[C@@H](C(N)=O)NC(=O)[C@H](Cc2c[nH]c3ccccc23)NC(=O)[C@@H]2C[C@@H](O)CN2C(=O)[C@@H]2CCCN2C(=O)[C@H]([C@@H](C)O)NC(=O)[C@H](CO)NC(=O)[C@H](Cc2c[nH]c3ccccc23)NC(=O)[C@H](CC(=O)O)NC(=O)[C@H](CCCNC(=N)N)NC1=O` [compound 10] (X1-CP[1Nal][dD]CMRDWSTP[Hyp]WC-NH2; linker 1-5-15 via TATA): the kon in data set [1] (HBS-P+ pH 7.4, 25 °C, read-out: k on (SPR, *10^6 M^–1 s^–1)) was 1.11e+06 M⁻¹ s⁻¹. Besides, the koff in data set [1] (pH 7.4, HBS-P+ pH 7.4, 25 °C, read-out: k off (SPR, *10^–3 s^–1)) is 0.00278 s⁻¹. For the same molecule, the Hill coefficient n in data set [2] stood at 2.05. Moreover, the “CHI IAM7.4” value in data set [3] stood at 19.9.

`C[Se]CC[C@@H]1NC(=O)[C@@H]2CSCCC(=O)N3CN(CN(C3)C(=O)CCSC[C@H](NC(=O)CC[C@H](C(=O)O)N3CCN(CC(=O)O)CCN(CC(=O)O)CC3)C(=O)N3CCC[C@H]3C(=O)N[C@@H](Cc3cccc4ccccc34)C(=O)N[C@H](CC(=O)O)C(=O)N2)C(=O)CCSC[C@@H](C(N)=O)NC(=O)[C@H](Cc2c[nH]c3ccccc23)NC(=O)[C@@H]2C[C@@H](O)CN2C(=O)[C@@H]2CCCN2C(=O)[C@H]([C@@H](C)O)NC(=O)[C@H](CO)NC(=O)[C@H](Cc2c[nH]c3ccccc23)NC(=O)[C@H](CC(=O)O)NC(=O)[C@H](CCCCNC(=N)N)NC1=O` [compound 5] (X1-CP[1Nal][dD]C[SeMet][hArg]DWSTP[Hyp]WC-NH2; linker 1-5-15 via TATA): in data set [4] (^64Cu-labeled ligand, n-octanol/PBS pH 7.4, ±SD), the “logD 7.4” value was “–2.37 (±0.07)”. Further, in data set [2], the Hill coefficient n worked out at 1.69. Moreover, the “CHI IAM7.4” value in data set [3] stood at 19.5.

`CCCC[C@@H]1NC(=O)[C@@H]2CSCCC(=O)N3CN(CN(C3)C(=O)CCSC[C@H](NC(=O)CC[C@H](C(=O)O)N3CCN(CC(=O)O)CCN(CC(=O)O)CC3)C(=O)N3CCC[C@H]3C(=O)N[C@@H](Cc3cccc4ccccc34)C(=O)N[C@H](CC(=O)O)C(=O)N2)C(=O)CCSC[C@@H](C(N)=O)NC(=O)[C@H](Cc2c[nH]c3ccccc23)NC(=O)[C@@H]2C[C@@H](O)CN2C(=O)[C@@H]2CCCN2C(=O)[C@H]([C@@H](C)O)NC(=O)[C@H](CO)NC(=O)[C@H](Cc2c[nH]c3ccccc23)NC(=O)[C@H](CC(=O)O)NC(=O)[C@H](CCCCNC(=N)N)NC1=O` [[^64Cu]Cu-3a, metal not drawn] (X1-CP[1Nal][dD]C[Nle][hArg]DWSTP[Hyp]WC-NH2; linker 1-5-15 via TATA): in data set [5] (Blood half life fast [min]), the half-life came out at 1.24 ± 0.15 min. Besides, the half-life in data set [5] (Blood half life slow [min]) was 38.2 ± 2.68 min. For the same molecule, in data set [6], the “Percent fast [%]” value was 85.43 ±1.50%, the “body retention at 2 h p.i.” value was found to be 70%, the “kidney uptake (SUVmean) at 2 h p.i.” value was 25 and the “time of highest tumor uptake” value was “≈ 6 min”. Further, the logD in data set [4] (pH 7.4, logD 7.4) is -2.53. In addition, in data set [7], the half-life is 1040 min.
